Reference: publication PMC8421423, “Cellular model system to dissect the isoform-selectivity of Akt inhibitors” (Nature Communications, 2021)
Where “and” joins values, the source holds several entries; their conditions need not be identical. Identical values can stand only once. Like-named read-outs stand apart in the source and are kept apart here.

Columns and labels:
[1] = test system: Ba/F3^myr-Akt2 cells; assay: CellTiter-Glo cell viability assay; conditions: for cell viability: CTG
[2] = molecular target: T1, Akt2 (Homo sapiens, UniProt P31751); assay: STK HTRF KinEASE activity-based assay (IC50)
T1 sequence (P31751 whole entry): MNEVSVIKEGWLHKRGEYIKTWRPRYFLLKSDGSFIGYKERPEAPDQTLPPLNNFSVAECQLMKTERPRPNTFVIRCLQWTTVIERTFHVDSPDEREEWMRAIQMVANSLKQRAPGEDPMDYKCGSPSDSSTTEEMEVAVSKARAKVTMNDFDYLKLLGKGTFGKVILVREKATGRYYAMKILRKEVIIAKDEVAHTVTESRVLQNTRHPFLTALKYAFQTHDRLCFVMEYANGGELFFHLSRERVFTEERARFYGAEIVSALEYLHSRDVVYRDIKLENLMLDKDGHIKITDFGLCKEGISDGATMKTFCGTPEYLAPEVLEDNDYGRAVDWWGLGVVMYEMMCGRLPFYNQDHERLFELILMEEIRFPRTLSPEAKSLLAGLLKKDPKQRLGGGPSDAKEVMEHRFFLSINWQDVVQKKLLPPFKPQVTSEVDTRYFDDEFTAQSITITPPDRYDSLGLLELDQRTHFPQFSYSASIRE

[3] = molecular target: T2, Akt3 (Homo sapiens, UniProt Q9Y243); assay: Cellular thermal shift assay (CETSA) in PANC1 cells; format: cell-based; design: purchased ProQinase #1578-0000-1
T2 sequence (Q9Y243 whole entry): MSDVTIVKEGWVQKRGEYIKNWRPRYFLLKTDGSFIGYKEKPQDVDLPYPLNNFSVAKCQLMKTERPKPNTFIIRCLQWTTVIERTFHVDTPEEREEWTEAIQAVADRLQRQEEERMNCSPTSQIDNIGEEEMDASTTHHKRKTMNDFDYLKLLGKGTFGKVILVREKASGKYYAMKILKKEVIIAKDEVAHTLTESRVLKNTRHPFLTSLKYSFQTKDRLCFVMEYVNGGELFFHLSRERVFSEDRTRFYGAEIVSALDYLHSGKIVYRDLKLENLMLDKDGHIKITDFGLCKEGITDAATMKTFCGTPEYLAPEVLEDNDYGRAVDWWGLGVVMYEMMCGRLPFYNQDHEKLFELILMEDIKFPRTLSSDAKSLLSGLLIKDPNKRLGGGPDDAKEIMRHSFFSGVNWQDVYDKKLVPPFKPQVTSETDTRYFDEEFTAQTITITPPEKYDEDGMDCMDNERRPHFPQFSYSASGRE
Procedure: (§1) Cells were seeded into 100 mm tissue culture plates (Sarstedt) (PANC1: 10^6 cells). After 24 h incubation, cells were treated with 1 µM of inhibitors or DMSO and were incubated for 4.5 h. Cells were washed twice with ice-cold PBS and then suspended in 1 mL PBS. Cells were collected and separated into equal volumes (100 µL). The aliquots were treated individually with different temperatures for 3 min, followed by a 3 min incubation at room temperature. Cell lysis was initiated by adding 100 µL RIPA buffer and 2 freeze-thaw cycles in liquid nitrogen. The lysates were centrifuged at 21,130×g for 20 min at room temperature. The supernatants were transferred into fresh, pre-cooled microcentrifuge tubes, and analyzed by western blot analysis as described above.

[4] = molecular target: T3, Akt1 (Homo sapiens, UniProt P31749); assay: as above; format: cell-based; design: purchased ProQinase #1379-0000-2
T3 sequence (P31749 whole entry): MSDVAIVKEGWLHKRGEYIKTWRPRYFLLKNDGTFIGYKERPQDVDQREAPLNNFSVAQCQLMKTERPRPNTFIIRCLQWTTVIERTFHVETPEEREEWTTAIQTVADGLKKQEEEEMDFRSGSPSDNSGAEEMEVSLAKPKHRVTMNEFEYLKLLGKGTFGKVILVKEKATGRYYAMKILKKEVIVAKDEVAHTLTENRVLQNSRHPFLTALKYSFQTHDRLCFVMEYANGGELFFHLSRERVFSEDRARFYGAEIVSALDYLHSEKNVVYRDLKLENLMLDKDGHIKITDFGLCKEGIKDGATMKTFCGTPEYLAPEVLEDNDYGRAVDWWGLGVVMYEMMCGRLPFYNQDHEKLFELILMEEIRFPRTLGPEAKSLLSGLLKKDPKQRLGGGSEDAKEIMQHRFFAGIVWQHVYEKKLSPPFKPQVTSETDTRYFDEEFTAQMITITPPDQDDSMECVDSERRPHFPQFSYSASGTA
Procedure: as §1

[5] = test system: pAkt2; assay: Western blot analysis, PANC1 cells; format: cell-based, human; conditions: PANC1, 24-h treatment
Procedure: Cells were seeded into six-well tissue culture plates (Sarstedt) (BaF3 myr-Akt1/2/3: 10^6 cells/well, PANC1: 250.000 cells/well). […] Cell lysis was initiated by addition of 100 μL RIPA buffer (Cell Signaling Technology) per well supplemented with phosphatase and protease inhibitor cocktails (Sigma) followed by incubation on ice for 20 min. Cells were then harvested by scraping (PANC1) or centrifugation (BaF3). Whole cell lysates were cleared by centrifugation at 14,000×g/4 °C for 10 min and transferred into fresh, pre-cooled microcentrifuge tubes. Protein concentrations were determined using the Pierce BCA protein assay (Thermo) as per manufacturer’s instructions. Equal amounts of protein were separated by SDS-PAGE and transferred to Immobilon-FL PVDF membranes (Merck Millipore) using Pierce™ 1-step transfer buffer (Thermo) and the Pierce™ Power Blotter (Thermo). Membranes were washed for 5 min with ddH2O, blocked with Intercept®Blocking Buffer TBS (Li-Cor) for 1 h at room temperature, and then incubated with primary antibodies diluted in Intercept®Blocking Buffer TBS overnight at 4 °C with gentle agitation. On the next day, the membranes were washed three times with TBS-T (50 mM Tris, 150 mM NaCl, 0.05 % Tween 20, pH 7.4) for 5 min before being incubated with secondary antibodies diluted in Intercept®Blocking Buffer TBS for 1 h at room temperature with gentle agitation. Finally, the membranes were washed three times for 5 min with TBS-T and then scanned using an Odyssey®CLx imaging system (Li-Cor).

[6] = molecular target: T3, Akt1; assay: STK HTRF KinEASE activity-based assay (IC50)
[7] = test system: Ba/F3^myr-Akt1 cells; assay: CellTiter-Glo cell viability assay; conditions: for cell viability: CTG
[8] = molecular target: T1, Akt2; assay: Cellular thermal shift assay (CETSA) in PANC1 cells; format: cell-based; design: purchased Thermo Fisher Scientific #PV3184
Procedure: as §1

[9] = CellTiter-Glo cell viability assay; format: cell-based, murine; conditions: mouse, parental Ba/F3 cells, CTG, parental, single replicates
Procedure: (§2) On day 0, cells were plated into white 384-well cell culture plates (Greiner Bio-One) using a Multidrop reagent dispenser (Thermo Fisher Scientific) at cell numbers that ensure linear and optimal luminescent signal intensity (Ba/F3myr-Akt1: 600 cells/well, Ba/F3myr-Akt2: 800 cells/well, Ba/F3myr-Akt3: 800 cells/well). […] Cell viability was analyzed on day 4 using the CellTiter-Glo Assay (Promega) as per the manufacturer’s instructions. […] All experimental points were measured in duplicates for each plate and were replicated in at least three plates.

[10] = test system: parental Ba/F3 cells; assay: CellTiter-Glo cell viability assay; format: cell-based, murine; conditions: for cell viability: CTG, parental
Procedure: as §2

[11] = test system: Ba/F3^myr-Akt3 cells; assay: CellTiter-Glo cell viability assay; conditions: for cell viability: CTG
Procedure: as §2

[12] = molecular target: T2, Akt3; assay: STK HTRF KinEASE activity-based assay (IC50)
Procedure: The biochemical half maximal inhibitory concentrations (IC50) were determined with the STK HTRF KinEASE assay (Cisbio) according to the manufactor’s instructions. Briefly: 5 µL Kinase solution and 2.5 µL inhibitor solution (8% DMSO in HTRF buffer) were incubated for 1 h before the reaction was started by addition of 2.5 µL starting solution containing ATP and substrate peptide. […] After reaction completion (Akt1: 60 min, Akt2: 20 min, Akt3: 15 min), 10 µL of stop solution were added. […] The quotient of both intensities were recorded at eight different inhibitor concentrations and data fit to a Hill 4-parameter equation with Quattro software suite (Quattro Research GmbH, Martinsried, Germany). Each reaction was performed in duplicates and at least three independent determinations of each IC50 were made.

[13] = CETSA PANC1, 0.3 µM, temperature 39.9
[14] = CETSA PANC1, 0.3 µM, temperature 43.5
[15] = CETSA PANC1, 0.3 µM, temperature 48.4
[16] = CETSA PANC1, 0.3 µM, temperature 53.8
[17] = CETSA PANC1, 0.3 µM, temperature 58.1
[18] = CETSA PANC1, 0.3 µM, temperature 61.4
[19] = CETSA PANC1, 0.3 µM, temperature 65.6
[20] = CETSA PANC1, 0.3 µM, temperature 70.9
[21] = CETSA PANC1, 0.3 µM, temperature 76
[22] = CETSA PANC1, 0.3 µM, temperature 79.9
[23] = CETSA PANC1, 1 µM, temperature 39.9
[24] = CETSA PANC1, 1 µM, temperature 43.5
[25] = CETSA PANC1, 1 µM, temperature 48.4
[26] = CETSA PANC1, 1 µM, temperature 53.8
[27] = CETSA PANC1, 1 µM, temperature 58.1
[28] = CETSA PANC1, 1 µM, temperature 61.4
[29] = CETSA PANC1, 1 µM, temperature 65.6
[30] = CETSA PANC1, 1 µM, temperature 70.9
[31] = CETSA PANC1, 1 µM, temperature 76
[32] = CETSA PANC1, 1 µM, temperature 79.9
[33] = cell viability assay Ba/F3 myr-Akt cells, log units

C=CC(=O)Nc1ccc2[nH]c(=O)n(C3CCN(Cc4ccc(-c5ncccc5-c5ccccc5)cc4)CC3)c2c1 [compound 1]
cell viability ([1]; myr-Akt2, 0.1 nM, single replicates, 0.0001 µM): 96.6 % of control and 111.8 % of control
cell viability ([1]; myr-Akt2, 5000 nM, single replicates, 5 µM): 74.8 % of control and 79.6 % of control
EC50 ([1]; Mus musculus, read-out: CTG BaF3myr-Akt2, Mean, mean of replicates): 4470 nM
viability at 0.0001 µM ([1]; Mus musculus, read-out: cell viability, CTG, myr-Akt2, 0.1 nM, single replicates): 105%
viability at 5 µM ([1]; Mus musculus, read-out: cell viability, CTG, myr-Akt2, 5000 nM, single replicates): 84.5%
EC50 ([1]; read-out: CTG BaF3myr-Akt2, individual determinations, single replicates): 6330 nM and 5560 nM and 1520 nM
IC50 ([2]; HTRF IC50 Akt2, Mean, mean of replicates): 599 nM
IC50 ([2]; HTRF IC50 Akt2, individual determinations, single replicates): 658 nM and 512 nM and 626 nM
IC50 ([2]; IC50 Akt2, HTRF, ATP at KM, 1 h preincubation): 599 ± 63 nM
loss of activity for Akt2 compared to Akt1 ([2]; biochemical IC50): 10 fold
tAkt3 % [3, 13]: 100.00%
tAkt3 % [3, 14]: 53.46%
tAkt3 % [3, 15]: 48.12%
tAkt3 % [3, 16]: 46.68%
tAkt3 % [3, 17]: 22.77%
tAkt3 % [3, 18]: 21.02%
tAkt3 % [3, 19]: 20.86%
tAkt3 % [3, 20]: 9.30%
tAkt3 % [3, 21]: 7.63%
tAkt3 % [3, 22]: 0.00%
tAkt3 % [3, 23]: 100.00%
tAkt3 % [3, 24]: 12.48%
tAkt3 % [3, 25]: 11.45%
tAkt3 % [3, 26]: 15.32%
tAkt3 % [3, 27]: 13.90%
tAkt3 % [3, 28]: 14.16%
tAkt3 % [3, 29]: 2.70%
tAkt3 % [3, 30]: 0.26%
tAkt3 % [3, 31]: 0.00%
tAkt3 % [3, 32]: 0.00%
tAkt1 % [4, 13]: 100.00%
tAkt1 % [4, 14]: 101.52%
tAkt1 % [4, 15]: 79.62%
tAkt1 % [4, 16]: 74.15%
tAkt1 % [4, 17]: 68.37%
tAkt1 % [4, 18]: 51.95%
tAkt1 % [4, 19]: 36.13%
tAkt1 % [4, 20]: 22.45%
tAkt1 % [4, 21]: 11.95%
tAkt1 % [4, 22]: 0.00%
tAkt1 % [4, 23]: 100.00%
tAkt1 % [4, 24]: 88.73%
tAkt1 % [4, 25]: 82.43%
tAkt1 % [4, 26]: 73.59%
tAkt1 % [4, 27]: 56.69%
tAkt1 % [4, 28]: 2.43%
tAkt1 % [4, 29]: 11.71%
tAkt1 % [4, 30]: 5.41%
tAkt1 % [4, 31]: 0.00%
tAkt1 % [4, 32]: 0.00%
thermal stabilization of Akt1 (CETSA, in words) ([4]; PANC1, 0.3 µM): preferred stabilization of Akt1
thermal stabilization of Akt1 (CETSA, in words) ([4]; PANC1, 1 µM): losing this selectivity
pAkt2 level (immunoblot) [5]: downregulation of pAkt1 and pAkt2
IC50 ([6]; HTRF IC50 Akt1, individual determinations, single replicates): 43.9 nM and 72.2 nM and 42.8 nM
IC50 ([6]; IC50 Akt1, HTRF, ATP at KM, 1 h preincubation): 53 ± 13 nM
Log ratio IC50 [Akt] / IC50 [Akt], Akt1 / Akt2 ([6]; biochemical activity based assay, log units): -1.05
cell viability ([7]; myr-Akt1, 0.1 nM, single replicates, 0.0001 µM): 91.2 % of control and 96.3 % of control
cell viability ([7]; myr-Akt1, 5000 nM, single replicates, 5 µM): 6.7 % of control and 13.9 % of control and 18.5 % of control
EC50 ([7]; Mus musculus, read-out: CTG BaF3myr-Akt1, Mean, mean of replicates): 1790 nM
viability at 0.0001 µM ([7]; Mus musculus, read-out: cell viability, CTG, myr-Akt1, 0.1 nM, single replicates): 85.5%
Log ratio EC50 [Akt] / EC50 [Akt], Akt1 / Akt2 [7, 33]: -0.40
EC50 ([7]; read-out: CTG BaF3myr-Akt1, individual determinations, single replicates): 1190 nM and 1500 nM and 2670 nM
tAkt2 % [8, 13]: 100.00%
tAkt2 % [8, 14]: 64.53%
tAkt2 % [8, 15]: 56.84%
tAkt2 % [8, 16]: 46.79%
tAkt2 % [8, 17]: 50.34%
tAkt2 % [8, 18]: 34.71%
tAkt2 % [8, 19]: 11.57%
tAkt2 % [8, 20]: 0.00%
tAkt2 % [8, 21]: 3.97%
tAkt2 % [8, 22]: 0.00%
tAkt2 % [8, 23]: 100.00%
tAkt2 % [8, 24]: 102.86%
tAkt2 % [8, 25]: 75.10%
tAkt2 % [8, 26]: 33.02%
tAkt2 % [8, 27]: 70.90%
tAkt2 % [8, 28]: 3.44%
tAkt2 % [8, 29]: 7.92%
tAkt2 % [8, 30]: -2.39%
tAkt2 % [8, 31]: 37.12%
tAkt2 % [8, 32]: 0.00%
viability at 3 days, 0.0001 µM ([9]; 0.1 nM, read-out: cell viability): 100%
viability at 3 days, 5 µM ([9]; 5000 nM): 106%
cell viability ([10]; 0.1 nM, single replicates, 0.0001 µM): 107.4 % of control and 103.8 % of control
cell viability ([10]; 5000 nM, single replicates, 5 µM): 99.2 % of control and 101.9 % of control
EC50 ([10]; Mus musculus, BaF3, parental cells, mean of replicates, read-out: CTG BaF3, Mean): 6890 nM
EC50 ([10]; Mus musculus, BaF3, parental cells, single replicates, read-out: CTG BaF3, individual determinations): 7690 nM
EC50 ([10]; parental cells, single replicates, read-out: CTG BaF3, individual determinations): 6990 nM and 6000 nM
cell viability ([11]; myr-Akt3, 0.1 nM, single replicates, 0.0001 µM): 105.8 % of control and 97.9 % of control
cell viability ([11]; myr-Akt3, 5000 nM, single replicates, 5 µM): 61.6 % of control and 92.9 % of control and 84.6 % of control
EC50 ([11]; Mus musculus, read-out: CTG BaF3myr-Akt3, Mean, mean of replicates): > 30000 nM
EC50 ([11]; Mus musculus, read-out: CTG BaF3myr-Akt3, individual determinations, single replicates): > 30000 nM
EC50 ([11]; Mus musculus, read-out: EC50 BaF3myr-Akt3, CTG): > 30000 nM
viability at 0.0001 µM ([11]; Mus musculus, read-out: cell viability, CTG, myr-Akt3, 0.1 nM, single replicates): 103%
Log ratio EC50 [Akt] / EC50 [Akt], Akt3 / Akt2 [11, 33]: -0.83
EC50 ([11]; read-out: CTG BaF3myr-Akt3, individual determinations, single replicates): > 30000 nM
IC50 ([12]; HTRF IC50 Akt3, individual determinations, single replicates): 5630 nM and 8200 nM and 6050 nM
IC50 ([12]; IC50 Akt3, HTRF, ATP at KM, 1 h preincubation): 6630 ± 1130 nM
loss of activity for Akt3 compared to Akt1 ([12]; biochemical IC50): 100 fold
